From patent US20260305610A1, “TRIAZOLE COMPOUND, AND PREPARATION METHOD THEREFOR, HERBICIDAL COMPOSITION AND USE THEREOF” (QINGDAO KINGAGROOT CHEMICAL COMPOUND CO., LTD., priority 2023, published 2026)

Assays:
[1] = system: monocotyledonous and dicotyledonous weeds; experiment: Pre-emergence test experiment (weeds); format: in vivo; set-up: key: 9: completely dead; 8: growth control rate is greater than or equal to 90% and less than 100%; 7: growth control rate is greater than or equal to 80% and less than 90%; 6: growth control rate is greater than or equal to 70% and less than 80%; growth control rate is greater than or equal to 50% and less than 70%; 4: growth control rate is greater than or equal to 30% and less than 50%; growth control rate is greater than or equal to 20% and less than 30%; growth control rate is greater than or equal to 10% and less than 20%; growth control rate is less than 10%; 0: no effect; details: 30 g a.i./ha
major crops = experiment: Pre-emergence test experiment (crops); format: in vivo; set-up: key: 9: completely dead; 8: growth control rate is greater than or equal to 90% and less than 100%; 7: growth control rate is greater than or equal to 80% and less than 90%; 6: growth control rate is greater than or equal to 70% and less than 80%; growth control rate is greater than or equal to 50% and less than 70%; 4: growth control rate is greater than or equal to 30% and less than 50%; growth control rate is greater than or equal to 20% and less than 30%; growth control rate is greater than or equal to 10% and less than 20%; growth control rate is less than 10%; 0: no effect; details: 30 g a.i./ha

Structure (SMILES)	Pre-emergence activity level (growth control rate) on Amaranthus retroflexus [1]	Pre-emergence activity level (growth control rate) on Descurainia sophia [1]	Pre-emergence activity level (growth control rate) on Digitaria sanguinalis [1]	Pre-emergence activity level (growth control rate) on Setaria viridis [1]	Pre-emergence activity level (growth control rate) on Solanum nigrum [1]	Pre-emergence activity level (growth control rate) on Veronica [1]	Pre-emergence plant damage level (growth control rate) on Corn (major crops)	Pre-emergence plant damage level (growth control rate) on Cotton (major crops)	Pre-emergence plant damage level (growth control rate) on Soybean (major crops)
COCc1ccc(-n2cnc(C(F)(F)F)n2)nc1Oc1cccc(OC(F)F)c1 [Compound 148]	9	9	8 (growth control rate is greater than or equal to 90% and less than 100%)	9	9	9	0	0	0
COCc1ccc(-n2cnc(C(F)(F)F)n2)nc1Oc1cncc(C(F)(F)F)c1 [Compound 142]	9	9	9	9	9	–	0	0	0
Cc1ccc(-n2cnc(C(F)F)n2)nc1Oc1ccc(F)c(C(F)(F)F)c1 [Compound 70]	9	9	9	9	9	9	0	0	0
Cc1ccc(-n2cnc(C(F)F)n2)nc1Oc1ccc(F)c(OC(F)(F)F)c1 [Compound 80]	9	9	9	8 (growth control rate is greater than or equal to 90% and less than 100%)	9	9	0	0	0
FC(F)(F)c1cccc(Oc2nc(-n3cnc(C(F)(F)F)n3)ccc2C2CC2)c1 [Compound 22]	9	9	7 (growth control rate is greater than or equal to 80% and less than 90%)	8 (growth control rate is greater than or equal to 90% and less than 100%)	7 (growth control rate is greater than or equal to 80% and less than 90%)	9	0	0	0
Cc1ccc(-n2cnc(C(F)F)n2)nc1Oc1cccc(C(F)F)c1 [Compound 84]	9	9	9	9	9	9	0	0	0
Cc1ccc(-n2cnc(C(F)(F)F)n2)nc1Oc1cccc(OC(F)(F)F)c1 [Compound 9]	9	9	9	9	9	9	0	0	0
FC(F)(F)c1cccc(Oc2nc(-n3cnc(C(F)(F)F)n3)ccc2Cl)c1 [Compound 7]	9	9	8 (growth control rate is greater than or equal to 90% and less than 100%)	9	–	9	0	0	0
COCc1ccc(-n2cnc(C(F)(F)C(F)(F)F)n2)nc1Oc1cccc(OC(F)(F)F)c1 [Compound 77]	9	9	8 (growth control rate is greater than or equal to 90% and less than 100%)	8 (growth control rate is greater than or equal to 90% and less than 100%)	7 (growth control rate is greater than or equal to 80% and less than 90%)	9	0	0	0
Cc1ccc(-n2cnc(C(F)(F)F)n2)nc1Oc1cccc(F)c1 [Compound 39]	9	–	–	–	–	9	0	0	0
COc1cc(Oc2cccc(OC(F)(F)F)c2)nc(-n2cnc(C(F)F)n2)c1 [Compound 67]	9	9	7 (growth control rate is greater than or equal to 80% and less than 90%)	7 (growth control rate is greater than or equal to 80% and less than 90%)	–	9	0	0	0
Cc1ccc(-n2cnc(C(F)(F)C(F)(F)F)n2)nc1Oc1cccc(C(F)(F)F)c1 [Compound 14]	9	9	8 (growth control rate is greater than or equal to 90% and less than 100%)	9	9	9	0	0	0
